According to patent US7288542B2, “Non-nucleoside reverse transcriptase inhibitors” (Roche Palo Alto LLC, priority 2004, dated 2007):
Where a name gives a salt, the structure may show the parent alone.

Assay: not given
Settings: not given

| melting point [°C] | Compound |
| --- | --- |
| 176.7 to 178.3 | Cc1cc(Cc2ccc(Cl)c(Oc3cc(C#N)cc(C#N)c3)c2F)nn(COC(=O)[C@@H](N)C(C)C)c1=O (as salt: hydrochloride) [Compound I-5, (S)-1-{3-[4-Chloro-3-(3,5-dicyano-phenoxy)-2-fluoro-benzyl]-5-methyl-6-oxo-6H-pyridazin-1-ylmethoxycarbonyl}-2-methyl-propyl-ammonium; chloride] |
| 172 to 179 | Cc1cc(Cc2ccc(Cl)c(Oc3cc(C#N)cc(C#N)c3)c2F)nn(CO)c1=O [Compound I-1, 5-[6-Chloro-2-fluoro-3-(1-hydroxymethyl-5-methyl-6-oxo-1,6-dihydro-pyridazin-3-ylmethyl)-phenoxyl]-isophthalonitrile] |
| 113.9 to 117.3 | Cc1cc(Cc2ccc(Cl)c(Oc3cc(C#N)cc(C(F)F)c3)c2F)nn(CO)c1=O [Compound I-27] |
| 133.9 to 137 | N#Cc1cc(F)cc(Oc2c(Cl)ccc(Cc3ccc(=O)n(COC(=O)CCC(=O)O)n3)c2F)c1 [Compound I-30, Succinic acid mono-{3-[4-chloro-3-(3-cyano-5-fluoro-phenoxy)-2-fluoro-benzyl]-6-oxo-6H-pyridazin-1-ylmethyl}ester] |
| 167 to 171.5 | Cc1cc(Cc2ccc(Cl)c(Oc3cc(C#N)cc(C#N)c3)c2F)nn(COC(=O)CCC(=O)O)c1=O [Compound I-8, Succinic acid mono-{3-[4-chloro-3-(3,5-dicyano-phenoxy)-2-fluoro-benzyl]-5-methyl-6-oxo-6H-pyridazin-1-ylmethyl}ester] |
| 75 to 90 | Cc1cc(Cc2ccc(Cl)c(Oc3cc(C#N)cc(C#N)c3)c2F)nn(COC(=O)OCCN(C)C)c1=O (as salt: HCl) [Compound I-18, Carbonic acid 3-[4-chloro-3-(3,5-dicyano-phenoxy)-2-fluoro-benzyl]-5-methyl-6-oxo-6H-pyridazin-1-ylmethyl ester 2-dimethylamino-ethyl ester] |
| 193.7 to 197.2 | Cc1cc(Cc2ccc(Cl)c(Oc3cc(C#N)cc(C#N)c3)c2F)nn(COP(=O)(O)O)c1=O (as salt: sodium) (hydrate or solvate) [Compound I-23, Phosphoric acid mono-{3-[4-chloro-3-(3,5-dicyano-phenoxy)-2-fluoro-benzyl]-5-methyl-6-oxo-6H-pyridazin-1-ylmethyl}ester disodium salt] |
| 100.5 to 103.8 | N#Cc1cc(F)cc(Oc2c(Cl)ccc(Cc3ccc(=O)n(CO)n3)c2F)c1 [Compound I-29] |
| 154.3 to 156.9 | Cc1cc(Cc2ccc(Cl)c(Oc3cc(C#N)cc(C(F)F)c3)c2F)nn(COC(=O)CCC(=O)O)c1=O [Compound I-28, Succinic acid mono-{3-[4-chloro-3-(3-cyano-5-difluoromethyl-phenoxy)-2-fluoro-benzyl]-5-methyl-6-oxo-6H-pyridazin-1-ylmethyl}ester] |

Assay: Oral pharmacokinetics in rats: plasma concentration of active nnRTI after gavage of prodrug or parent (Example 8)
Assay type: in vivo
Settings: parent compound dosed p.o. at 50 mg/kg
Method: dose equivalent to (0.127 mmol) was administered orally by gavage. A blood sample (0.3 mL) was collected from the […] at 0.5, 1, 2, 3, 4, 6 and 8 hours after via the jugular cannula. A sample of at least 0.3 mL of blood was withdrawn from the untreated animals 3 h after dosing. After 24 h from dosing, as much blood as possible was collected from all treated and control animals. Potassium oxalate/NaF was added to the samples which were stored on ice during sampling procedure. The samples were spun in a refrigerated centrifuge at […] as soon as possible and the plasma samples were stored −20° C. immediately after centrifugation amd later transferred to a −80° C. freezer until analysis. The concentration of test compound was determined by hplc.

| AUC (total amount of active nnRTI absorbed) [ng·h/mL] | Compound |
| --- | --- |
| 30000 | Cc1cc(Cc2ccc(Cl)c(Oc3cc(Cl)cc(C#N)c3)c2F)n[nH]c1=O [Compound 11, 3-chloro-5-[6-chloro-2-fluoro-3-(5-methyl-6-oxo-1,6-dihydro-pyridazin-3-ylmethyl)-phenoxy]-benzonitrile] |
| 8100 | Cc1cc(Cc2ccc(Cl)c(Oc3cc(C#N)cc(C#N)c3)c2F)n[nH]c1=O [Compound 10, 5-[6-chloro-2-fluoro-3-(5-methyl-6-oxo-1,6-dihydro-pyridazin-3-ylmethyl)-phenoxy]-isophthalonitrile] |

Same assay, conditions: rat, plasma, po, parent compound dosed p.o. at 50 mg/kg, read-out: Cmax (peak concentration of active nnRTI) (converted)

| Cmax [ng/mL] | Compound |
| --- | --- |
| 2300 | Cc1cc(Cc2ccc(Cl)c(Oc3cc(Cl)cc(C#N)c3)c2F)n[nH]c1=O [Compound 11, 3-chloro-5-[6-chloro-2-fluoro-3-(5-methyl-6-oxo-1,6-dihydro-pyridazin-3-ylmethyl)-phenoxy]-benzonitrile] |
| 600 | Cc1cc(Cc2ccc(Cl)c(Oc3cc(C#N)cc(C#N)c3)c2F)n[nH]c1=O [Compound 10, 5-[6-chloro-2-fluoro-3-(5-methyl-6-oxo-1,6-dihydro-pyridazin-3-ylmethyl)-phenoxy]-isophthalonitrile] |
